In patent US6146824A, “Method for determining tumor cell adhesion” (Hadasit Medical Research Services and Development Company …, priority 1995, dated 2000):
No end group written: not given here.

Tests used:
MIM/8 cells = assay: Adhesion of high metastatic human melanoma cells MIM/8 to Th-1; type: cell-based; details: 100 μg/ml Th-1; compared with low metastatic MeWo
Method: (§1) Human melanoma cells established from lymph node metastases, being either MeWo cell lines representing diverse metastatic potentials, or a highly metastatic cell line originating from a melanoma patient (Nip et al., J. Clin. Invest. 90:1406-1413 (1992)) were used. High metastatic cells were selected by adhesion to lymph nodes and were designated as MeWoLN161 (also referred to as "61").
(§2) The cells were incubated with 100 μg/ml Th-1 and their adherence was determined as described above. As control, the level of adherence of the cells to BSA coated substrate was determined.

B16-BL6 cells [1] = assay: Adhesion of high metastatic B16-BL6 melanoma cells to coated substrate (methylene blue uptake); type: cell-based, murine; details: plates coated with 10, 50 or 250 μg/well peptide or 10 μg/ml plasmin-digested thrombin; 37° C., 2 hours
Method: (§3) Confluent endothelial cells were dissociated with trypsin-EDTA solution, washed once in growth medium and resuspended in DMEM containing 0.2% bovine serum albumin (BSA). 1.3×10^5 cells/well/0.2 ml DMEM containing 0.2 BSA were added to each protein-coated well and incubated at 37° C. for 2 h. The plates were then washed three times with phosphate batter saline (PBS) and the firmly attached cells were fixed with 3% paraformaldehyde. Fixed cells were then rinsed with 0.1 M borate buffer (pH 8.5), stained for 10 mins. at 22° C. with 0.1 ml/well methylene blue (1% in 0.1 M borate buffer, pH 8.5) and washed four times in borate buffer. This procedure removed practically all non cell-bound dye. Methylene blue which was incorporated by cells was dissolved with 0.1 N HCl (0.2 ml/well) for 40 mins. at 37° C., and determined by its absorbance at 600 nm. Tissue culture plates were coated with either 10, 50 or 250 μg/well of Th-1; with 10 μg/ml of thrombin digested by incubation at 22° C. for 1 hour with plasmin (2 μg/ml); or with 0.2% BSA which served as control (CON). 0.5×10^6 cells/wells of B16-BL6 or B16-F1 cells, which are known to present in vivo high and low pulmonary colonization, respectively, were incubated at 37° C. for 2 hours with the plates coated with the substrates described above. […] The level of cell attachment was evaluated by the methylene blue uptake assay described in I(E) above. […]

MeWoLN161 (61) cells = assay: Adhesion of high metastatic human melanoma cells 61 to Th-1; type: cell-based; details: 100 μg/ml Th-1; compared with low metastatic MeWo
Method: as §1, §2

B16-F1 cells = assay: Adhesion of low metastatic B16-F1 melanoma cells to coated substrate (methylene blue uptake); type: cell-based, murine; details: plates coated with 10, 50 or 250 μg/well peptide or 10 μg/ml plasmin-digested thrombin; 37° C., 2 hours
Method: as §3

B16-BL6 cells [2] = assay: Inhibition of B16-BL6 cell adhesion to modified RGD-exposed thrombin (plasmin-digested); type: cell-based, murine
Method: Fixed cells were then rinsed with 0.1 M borate buffer (pH 8.5), stained for 10 mins. at 22° C. with 0.1 ml/well methylene blue (1% in 0.1 M borate buffer, pH 8.5) and washed four times in borate buffer. This procedure removed practically all non cell-bound dye. Methylene blue which was incorporated by cells was dissolved with 0.1 N HCl (0.2 ml/well) for 40 mins. at 37° C., and determined by its absorbance at 600 nm. 10 μg/ml of thrombin was digested with 2 μg/ml plasmin by incubation in 22° C. for 1 hour. Tissue culture plates were coated with digested […] by incubation at 4° C. for 2 hours. 1×10^6 B16-BL6 cells were incubated, at 22° C. for 30 mins. with increasing concentrations of Th-1 peptide (20-300 μg) prior to attachment to treated tissue culture plates by incubation at 37° C. for 2 hours. The attached cells were washed 3 times with PBS and fix with 3% formaldehyde. The level of attachment was evaluated by the methylene blue uptake assay described in I(E) above.

[3] = system: B16-BL6 murine melanoma cells; assay: Inhibition of lung colonization of co-injected B16-BL6 melanoma cells in C57BL/6 mice; type: in vivo
Method: 1×10^5 cells/0.2 ml/mouse B16-BL6 cells were injected into the lateral tail vein of unanesthetized C57BL/6 mice. The mice were monitored on a daily basis and sacrificed 2 weeks later by cervical dislocation. The animals were necropsied, and the lungs were removed, washed in water, and fixed in Bouin's solution (containing saturated solution of picric acid, 2% glacial acetic acid and 3% formaldehyde). The number of lung nodules was determined under a dissecting microscope.
B16-BL6 cell monolayers in culture were detached for 2 mins. with 0.02% EDTA and resuspended gently to 1×10^5 cells/0.2 ml DMEM. 0.5 mg/1×10^5 cells/0.2 ml of Th-1 was preincubated, at 37° C. for 30 mins, with a half of the cells' cultures prior to injecting mice. A single cell suspension (1×10^5 cells/0.2 ml/mouse), comprising either Th-1 treated or Th-1 untreated melanoma cells was injected slowly into the lateral tail vein of C57BL/6 mice.
Fourteen days after injection, the mice were sacrificed, and their lungs were excised and fixed with 10% formaldehyde and stained with saturated picric acid. The number of surface melanoma colonies was counted visually or with the aid of a dissecting microscope.

rat-aorta ring = assay: Apoptosis in rat aorta ring by TUNEL nuclei staining; type: cell-based
Method: Apoptosis, or programmed cell death, can be evaluated by DNA fragmentation using a technique based on terminal deoxynucleotidyl transferase (TdT) reactivity with DNA breaks. This histochemical staining was based on the original "TUNEL" method (Gavrieli, et al., J. Cell Biol. 119:493-501 (1992)). Tissue was fixed in buffered formalin; after deparaffinization and hydration, the slide was quenched with H2 O2, in methanol. In order to strip the nuclear proteins, the tissue was preincubated in Tris-HCl and then incubated with proteinase K (20 μg/ml) for 15 minutes and washed. DNA fragments are elongated and labeled with biotinylated poly dUTP, introduced by terminal deoxynucleotidyl transferase. Finally, bound biotin is stained by avidin conjugated peroxidase, developed with nickle-enhanced diaminobenzidine. For positive control (FIG. 12, E) staining serves a preparation that was exposed to DNase digestion (according to Gavieli, et al., supra). […] It is important to emphasize that the RGD derived peptide-Th-1, is capable of inducing in addition to inhibition of micro-vessel sprout formation, cellular signaling of programmed cell death, indicating a possible explanation for the mechanism by which angiogenesis is prevented by Th-1.

melanoma cells = details: Humphries et al. (1988); cited from earlier work

Method for rat aorta rings: Type 1 collagen is prepared from the tail tendons of adult Sprague-Dawley rats. Briefly, the collagen fibers are solubilized by a slow stirring for. 48 hours at 4° C. in a sterile, 1/1000 (v/v) acetic acid solution (300 ml for 1 gr. of collagen). The resulting solution is filtered through a sterile triple gause and centrifuged at 16,000 gr for 1 hour at 4° C. The collagen matrix gel is obtained by simultaneously raising the pH and ionic strength of the collagen solution. For this purpose, seven vols. of collagen solution was quickly mixed with 1 vol. of 10×Minimum Essential Medium and 2 vols. of sodium bicarbonate (0.15 M).
Thoratic aortas are obtained from 1-2 month old SD rats sacrificed by decapitation. The aortas are immediately transferred to a Petri dish with PBS. The fibroadipose tissue around the aorta is carefully removed under a dissecting microscope and 1 mm long aortic rings are sectioned and extensively rinsed with PBS.
The collagen solution (0.2 ml) is added to each of 16 mm well and gellation was allowed for 15 mins. at 37° C. The aorta ring is transferred and positioned to the center of the gel and another 0.4 ml of the collagen solution is carefully poured on top of the ring. After the gel is formed, 0.4 ml of Serum-free Endothelial Growth Medium is added and changed every other day.
In this system, the rings of aorta are cultured in a three-dimensional gel of collagen sprouts to microvessel.

Substance	concentration giving 50% inhibition of explant formation (rat aorta rings) [µg/mL]	concentration giving complete inhibition (rat aorta rings) [µg/mL]	inhibition of angiogenesis in aorta rings (rat aorta rings; 100 μg/ml, vs peptide of similar size without RGD-site)	microvessel formation after longer incubation then washout (rat aorta rings; 150 μg/ml for 6 days, then fresh medium)	microvessel formation with peptide constantly present (rat aorta rings; 150 μg/ml, up to 14 days)	inhibition in sprout formation of the microvessel (rat aorta rings; 10-250 μg/ml)	adherence of MIM/8 cells to Th-1 compared to BSA control (MIM/8 cells)	adhesion of B16-BL6 cells to the substrate (B16-BL6 cells [1])	adherence of 61 cells to Th-1 compared to BSA control (MeWoLN161 (61) cells)	adhesion of B16-F1 cells to the substrate (B16-F1 cells)	concentration at which inhibition of adhesion to modified RGD-exposed thrombin was already obtained (B16-BL6 cells [2]; B16-BL6 cells) [µM]	inhibition of adhesion of B16-BL6 cells to modified RGD-exposed thrombin (B16-BL6 cells [2]; cells preincubated with 20-300 μg peptide, 22° C., 30 mins)	inhibition of lung colonization ([3]; 0.5 mg peptide/mouse, co-injected i.v. with B16-BL6 cells, 14 days)	effect on melanotic colonies in the lungs ([3]; co-injection with B16-BL6 cells, 14 days after injection, vs B16-BL6 alone)	potency in inhibiting metastasis of melanoma cells relative to GRGDS peptide ([3]; vs GRGDS of prior art)	concentration giving maximal induction of apoptosis (rat-aorta ring) [µg/mL]	apoptosis (nuclei staining, TUNEL) (rat-aorta ring; 10-250 μg/ml)	concentration at which inhibition of metastasis was evident (melanoma cells) [mg/mouse]
AGYKPDEGKRGDAC [Th-1, I.D. No. 2, residues 178-191 of native thrombin]	~50	100 to 250	able to inhibit angiogenesis	further increased inhibition	complete inhibition	dose dependent inhibition	significantly higher level of adherence	high, dose dependent adhesion	significantly higher level of adherence	low relatively dose independent adhesion level	16	inhibited, in a dose depended manner	Over 90%	marked reduction of melanotic colonies	about 20 fold	250	dose dependent manner	
GRGDS																		3
